One experiment addresses T1, TLR9 (Homo sapiens, UniProt Q9NR96).
T1 construct: expressed in transfected cells; host or cells: NIH 3T3 fibroblasts (mouse), stably transfected, NF-kB driven SEAP reporter
T1 sequence (Q9NR96 26-1032): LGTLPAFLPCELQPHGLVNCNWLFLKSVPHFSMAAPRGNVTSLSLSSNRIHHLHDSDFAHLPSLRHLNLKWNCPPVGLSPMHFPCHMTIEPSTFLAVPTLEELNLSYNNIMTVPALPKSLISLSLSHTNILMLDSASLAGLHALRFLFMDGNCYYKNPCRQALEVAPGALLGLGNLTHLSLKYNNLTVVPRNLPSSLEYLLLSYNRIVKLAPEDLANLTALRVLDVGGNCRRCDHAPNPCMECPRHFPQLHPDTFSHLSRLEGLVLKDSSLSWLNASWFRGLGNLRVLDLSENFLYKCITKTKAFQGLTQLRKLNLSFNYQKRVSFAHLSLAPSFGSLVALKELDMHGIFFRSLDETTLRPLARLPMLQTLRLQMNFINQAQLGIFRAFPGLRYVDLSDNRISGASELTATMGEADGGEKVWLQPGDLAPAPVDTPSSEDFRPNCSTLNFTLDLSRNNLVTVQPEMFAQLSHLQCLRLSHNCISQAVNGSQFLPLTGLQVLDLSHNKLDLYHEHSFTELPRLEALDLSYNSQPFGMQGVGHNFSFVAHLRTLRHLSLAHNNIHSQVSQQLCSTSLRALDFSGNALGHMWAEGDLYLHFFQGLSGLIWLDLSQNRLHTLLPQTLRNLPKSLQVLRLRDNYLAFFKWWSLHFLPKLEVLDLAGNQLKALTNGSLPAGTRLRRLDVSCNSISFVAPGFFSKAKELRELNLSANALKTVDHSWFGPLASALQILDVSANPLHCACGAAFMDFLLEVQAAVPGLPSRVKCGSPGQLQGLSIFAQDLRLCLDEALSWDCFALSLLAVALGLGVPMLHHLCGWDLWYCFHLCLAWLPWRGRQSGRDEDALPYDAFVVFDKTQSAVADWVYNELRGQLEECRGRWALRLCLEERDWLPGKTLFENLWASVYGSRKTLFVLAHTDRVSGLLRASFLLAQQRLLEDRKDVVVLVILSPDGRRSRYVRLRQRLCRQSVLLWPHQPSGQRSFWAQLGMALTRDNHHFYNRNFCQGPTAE
In words: cell-based reporter assay (NIH 3T3 reporter cell line expressing TLR9, NF-kB driven SEAP, stimulated with CpG ODN 2216). Conditions: FIG. 3; 5 μM ODN 2216, 0.12 μM-7.8 μM of antagonist. The protocol:
In context with the present invention, the ‘IC50 value’ is the half maximum inhibitory concentration which is a measure of the effectiveness of a substance inhibiting the function of the TLR9. The IC50 value can be determined by a functional antagonist assay or a competition binding assay. Preferably, the IC50 value is determined by the cell-based reporter assay in section 3, below, of the examples.
A cell based test-system that allows PAMPs to be identified and differentiated via pattern recognition receptors (PRRs) in a reporter gene assay was used (DE 10 2006 031 483, EP 2 041 172). For this assay human PRRs and co-receptors were stably transfected and expressed in NIH 3T3 fibroblasts. This cell line expresses no other PRRs and contains a reporter gene which is activated by PRR-activation. The induction of receptor complexes by their ligands leads, after a signalling cascade, to an activation of transcription factor NF-kB, which regulates the expression of an additional integrated reporter gene, a secreted alkaline phosphatase (SEAP) (Burger-Kentischer, A.; Abele, I. S.; Finkelmeier, D.; Wiesmüller, K.-H.; Rupp, S., A new cell-based innate immune receptor assay for the examination of receptor activity, ligand specificity, signalling pathways and the detection of pyrogens. J. Immunol. Methods 2010, 358 (1), 93-103).
This test system mimics elements of the innate human immune system and can selectively recognize a large number of PAMPs with high sensitivity. Consequently, the PRR-specific cell-based high-throughput feature of the reporter cell lines will provide a fast, flexible and convenient means for lead compound screening in the pharmaceutical drug development fields. For the in vitro screening of the top candidates identified at IDR, the Fraunhofer IGB used this cell-based reporter system to identify TLR9 antagonists in order to determine their activity as well their biocompatibility. Within a first step the NIH3T3 cell line expressing TLR9 was used to measure the inhibitory effect of the TLR9 antagonists.
For the experiment the reporter cell line expressing TL9 was plated in 96-well cell culture plates at a density of 0.3×10^5 cells in DMEM media supplemented with 10% FCS (Invitrogen), 1% L-glutamine (200 mM Invitrogen) and 1% Penicillin-Streptomycin (PenStrep: 100×, Invitrogen). The cells were incubated for 16 h to grow adherent monolayers at 37° C. in a 5% saturated CO2 humidified atmosphere. After overnight incubation, the media was removed and replaced by DMEM medium supplemented with 1% PenStrep, 1% L-glutamine and 0.5% FCS. The media change is important to avoid a unspecific background signal, caused by active remaining phosphatases present in the FCS. The cells are then stimulated with a specific ligand non-methylated CpG ODN 2216 agonist (Invivogen) and the potential antagonists using different concentrations, namely within a range of concentrations of the potential antagonists starting with 0.025 μM (for the antagonist with the highest activity) up to 14 mM for the antagonists with lowest activities.
The ODN ligand has the sequence 5′-ggGGGACGA:TCGTCgggggg-3′ (SEQ ID No. 1). Those represented by capital letters are phosphodiesters, and those in small letters are phosphorothioate. The Palindrome is underlined.
The cells were again incubated in a humidified atmosphere for 16h leading to the expression or reduced expression of SEAP and its secretion into the media. Binding of the antagonist leads to a block of the TLR9, resulting in no or in a reduced expression of the reporter gene (SEAP). Therefore, 50 μl supernatant were taken from the cells and transferred into a 96-well PS microplate flat bottom (Greiner BIO-ONE). The enzyme substrate reaction was initiated by adding 50 μl of the specific substrate. SEAP catalyses the hydrolysis of pNPP to the final product para-nitrophenol (yellow), which can be detected in a photometric analysis using an UV-VIS reader at 405 nm. […]
In the case of `c1ccc(-n2cc(CNCCCN3CCOCC3)c(-c3cc4ccccc4o3)n2)cc1` [T5570245], the ODN2216 signal entry was “dose dependent reduction of the signal”.

The same experiment, now with this note: FIG. 3; 5 μM ODN 2216, 0.12 μM-7.8 μM of antagonist; read-out: IC50 value.
As for `c1ccc(-n2cc(CNCCCN3CCOCC3)c(-c3cc4ccccc4o3)n2)cc1` [T5570245], the IC50 was 0.8 µM.

The experiment is the same for the next values; noted with them: Table 5; first 30 candidates; ODN 2216 agonist; n≥3.
`c1ccc(-c2cc(-c3cccnc3)nc3ccccc23)cc1` [T5762626, n1c2c(cccc2)c(cc1-c1cccnc1)-c1ccccc1]: the “IC50 in [μM]” value was “agonist”.
The same measure, in the same setting: the entry for `Cc1ccc(N2CCN(/N=C/C=C/c3ccccc3)CC2)cc1` [T0505-2171, N(/N1CCN(CC1)c1ccc(cc1)C)═C\C═C\c1ccccc1] is “agonist”.

The same experiment, now with this note: Table 5; first 30 candidates; ODN 2216 agonist; n≥3; read-out: IC50 in.
`COCCNc1ncnc2c1c(-c1ccccc1)cn2-c1ccc(OC)cc1` [T6015017, O(C)c1ccc(-n2cc(c3c2ncnc3NCCOC)-c2ccccc2)cc1]: the IC50 amounted to 2030 µM.
Still for that read-out and setting: then `Cc1cc(-c2ccc(-n3ccnc3)cc2)nc2ccccc12` [T5803292, n1c2c(cccc2)c(cc1-c1ccc(-n2ccnc2)cc1)C], with 4270 µM.
Still for that read-out and setting: the figure for `COc1ccc(CCN(C)c2ncnc3c2oc2ccccc23)cc1OC` [T0519-4581, o1c2c(ncnc2N(CCc2cc(OC)c(OC)cc2)C)c2c1cccc2] is 15.1 µM.
Same read-out and setting: then `c1ccc(-c2cc(-c3ccncc3)nc3ccccc23)cc1` [T6306924, n1c2c(cccc2)c(cc1-c1ccncc1)-c1ccccc1], with 870 µM; and `c1ccc(OCCn2c(-c3ccco3)nc3ccccc32)cc1` [T5456813, o1cccc1-c1nc2c(n1CCOc1ccccc1)cccc2], with 73.2 µM.
As for `COc1ccc(/N=C/c2ccc3ncccc3c2)cc1` [T0501-0693, O(C)c1ccc(\N═C\c2cc3c(nccc3)cc2)cc1], the IC50 is 15.7 µM.
On the same count and under the same terms, then `COc1cccc(OCCCCn2cnc3ccccc32)c1` [T6416309, O(CCCCn1c2c(nc1)cccc2)c1cc(OC)ccc1], with 13.3 µM; and `c1ccc(-c2nc3ccccc3nc2-c2ccccc2)cc1` [T0504-1257, n1c2c(nc(c1-c1ccccc1)-c1ccccc1)cccc2], with 1990 µM; and `COc1ccc(OCCN(C)c2ncnc3c2oc2ccccc23)cc1` [T6593995, o1c2c(ncnc2N(CCOc2ccc(OC)cc2)C)c2c1cccc2], with 905 µM.
The same measure, in the same setting: the figure for `CCOc1ccccc1OCCOc1cccc2cccnc12` [T0513-2251, O(CCOc1c2ncccc2ccc1)c1ccccc1OCC] is 1080 µM; for `COc1ccc(CCNc2ncnc3c2oc2ccccc23)cc1OC` [T5666774, o1c2c(ncnc2NCCc2cc(OC)c(OC)cc2)c2c1cccc2] it is 30.3 µM; for `c1ccc2c(NCCNc3ncnc4ccccc34)cccc2c1` [T5807811, n1cnc2c(cccc2)c1NCCNc1c2c(ccc1)cccc2] it is 57 µM.
Still for that read-out and setting: then `c1ccc(-c2cn3c(n2)CCc2ccc4cccnc4c2-3)cc1` [T0502-6934, n1c2n(cc1-c1ccccc1)-c1c(CC2)ccc2c1nccc2], with 13200 µM; and `COc1ccccc1N1CCN(c2ccc3ccccc3n2)CC1` [T5547436, O(C)c1ccccc1N1CCN(CC1)c1nc2c(cc1)cccc2], with 1160 µM; and `COc1ccc(OCCOc2cccc3cccnc23)cc1` [T5771955, O(CCOc1ccc(OC)cc1)c1c2ncccc2ccc1], with 650 µM.
As to `COc1ccc(-n2c(-c3ccncc3)nc3ccccc32)cc1` [T5771455, O(C)c1ccc(-n2c3c(nc2-c2ccncc2)cccc3)cc1], the IC50 was 11.9 µM.
On to `C(=C\c1ccc2ccccc2n1)/c1ccc(N2CCOCC2)cc1` [T6549007, O1CCN(CC1)c1ccc(cc1)\C═C\c1nc2c(cc1)cccc2], for which the IC50 stood at 4320 µM.
In the case of `COc1ccc(/C=C/c2ccc3ccccc3n2)c(OC)c1` [T5713724, O(C)c1cc(OC)ccc1\C═C\c1nc2c(cc1)cccc2], the IC50 turned out to be 15.9 µM.
For `COc1cc(/C=C/c2ccc3ccccc3n2)cc(OC)c1` [T5702130, O(C)c1cc(cc(OC)c1)\C═C\c1nc2c(cc1)cccc2], the IC50 is 7.27 µM.
Still for that read-out and setting: the figure for `C(=C\c1ccc2ccccc2n1)/c1ccc(-n2ccnc2)cc1` [T5500062, n1c2c(ccc1\C═C\c1ccc(-n3ccnc3)cc1)cccc2] is 777 µM.

The experiment is the same for the next values; noted with them: in the presence of 5 μM of the ODN 2216 agonist; read-out: IC50 in.
Regarding `CC(C)(c1ccccc1)c1ccc(OCCCNCCN2CCOCC2)cc1` [T5793071], the IC50 stood at 6.43 µM.
In the case of `COc1cc(CN2CCN(CCN3CCCC3)CC2)ccc1OCc1ccc(Cl)cc1` [T5428933], the IC50 was 0.962 µM.
As for `c1ccc(CN2CCN(c3ccnc(N4CCN(Cc5ccccc5)CC4)n3)CC2)cc1` [T5453081], the IC50 worked out at 1.6 µM.
Same read-out and setting: then `COc1ccc(CN2CCN(Cc3c(-c4ccccc4)nc4ccccn34)CC2)cc1OC` [T5635793], with 6.32 µM; and `COc1cc2nc(-c3ccccc3)nc(N3CCN(CCN4CCCC4)CC3)c2cc1OC` [T5669070], with 0.0536 µM; and `CN(C)CCCNCc1cn(-c2ccccc2)nc1-c1ccc2c(c1)OCCO2` [T5581953], with 0.201 µM.
Same read-out and setting: then `COc1ccc(-c2nn(-c3ccccc3)cc2CNCc2ccccc2CN2CCOCC2)cc1` [T5571341], with 3.14 µM; and `COc1ccc(CNc2nc3ccccc3n2CCN2CCCCC2)cc1OC` [T0503-2983], with 6.78 µM; and `COc1ccc(-c2nn(-c3ccccc3)cc2CNCc2ccccc2CN2CCOCC2)cc1OC` [T6083277], with 7.51 µM.
On the same count and under the same terms, the figure for `c1ccc(-n2cc(CNCCN3CCCC3)c(-c3ccc4c(c3)OCCO4)n2)cc1` [T5581956] is 3.16 µM; for `c1ccc(-n2cc(CNCCCN3CCOCC3)c(-c3cc4ccccc4o3)n2)cc1` [T5570245] it is 0.815 µM; for `CCN1CCC(NCc2ccc(-n3cnc4ccccc43)cc2)CC1` [T5820428] it is 1.78 µM.
Take `CCCN1CCC(NCc2cn(-c3ccccc3)nc2-c2ccc3c(c2)OCCO3)CC1` [T5587050]: the IC50 was determined as 1.87 µM.
As to `COc1cc(CNC2CCN(Cc3ccccc3)CC2)ccc1OCc1c(C)noc1C` [T5364934], the IC50 turned out to be 1.62 µM.
Same read-out and setting: the figure for `c1ccc(Cn2cc(CNCc3ccc(CN4CCOCC4)cc3)c(-c3cccnc3)n2)cc1` [T6216617] is 7.56 µM; for `Clc1ccc(CN2CCC(NCc3ccc(-n4ccnc4)cc3)CC2)cc1` [T6683896] it is 0.896 µM.

The IC50 is the concentration at which inhibition is half-maximal.

Source of the values: patent US11104677B2, “Toll-like receptor 9 antagonists” (FRAUNHOFER-GESELLSCHAFT ZUR FÖRDERUNG DER ANGEWANDTEN …, priority 2015, dated 2021).
